Laboratory results: patent US8609608B2, “Antimicrobial peptides” (C3 Jian, Inc., priority 2007, dated 2013)
Where no end group is shown, it is not given here.

Columns and labels:
[1] = test system: clinical isolates of S. mutans; assay type: cell-based, Streptococcus mutans; settings: clinical isolates of
Method in brief: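 Bacteria grown anaerobically (80% N2, 10% CO2, 10% H2) to 1×10^8 CFU/ml were diluted to 1×10^5 CFU/ml in Todd-Hewitt or Veillonella medium. Peptide was added in 1:2 dilutions (500–1.95 or 512–2 μg/ml) and plates were incubated 16–20 h at 37° C. MIC was the last clear well by eye, in triplicate.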

S. mutans UA159 = test: Killing kinetics (time-kill assay); assay type: cell-based, Streptococcus mutans; settings: peptide 25 μg/ml; for TC, time required to kill 3 log10 of recoverable CFU/ml: UA159
Description: The determination of killing kinetics for fusion and parental peptides was conducted essentially as described previously (Eckert et al. (2006) Antimicrob. Agents Chemother. 50: 1480-1488). Briefly, medium-diluted overnight UA159 cultures (0.5×10^6 to 1×10^6 CFU/ml) were challenged with peptide at a concentration of 25 μg/ml, and at the indicated time intervals (“0 min” indicates untreated samples), a 10-μL aliquot was removed and the surviving CFU were rescued by dilution (1:50) into growth medium and then spread on TH agar plates for quantitation. […] Kinetics were determined by recording the average number of surviving CFU/ml versus incubation time in the presence of peptide (all assays were independently repeated three to five times). For Table 8, time to bactericidal killing (TC) values were defined as the time required for the level of surviving CFU/ml from peptide-treated cultures to fall 3 log10 below the levels of recovered S. mutans CFU/ml from untreated samples.

S. gordonii Challis DL1 = assay type: cell-based, Streptococcus gordonii
Description: (§1) S. mutans clinical isolates UA140 (32), UA159 (1), T8 (33), ATCC 25175, GS5 (Kuramitsu and Ingersoll (1977) Infect Immun., 17: 330-337), and all gram-positive strains listed below (see Table 9) were grown under anaerobic conditions in brain heart infusion or Todd-Hewitt (TH) broth (Difco) overnight at 37° C. prior to use (Eckert et al. (2006) Antimicrob. Agents Chemother. 50: 3651-3657). Veillonella atypica PK1910 was grown in Veillonella medium (Egland et al. (2004) Proc. Natl. Acad. Sci., USA, 101: 16917-16922). All strains were grown in an anaerobic atmosphere of 80% N2, 10% CO2, and 10% H2.
(§2) Antibacterial growth inhibition assays were performed using sterile 96-well plates in a final volume of 100 μl, TH or Veillonella medium as described previously (Qi et al. (2005) FEMS Microbial Lett. 251: 321-326). Briefly, bacterial cells were grown overnight to an optical density at 600 nm of 0.75 to 0.8 (corresponding to 1×10^8 CFU/ml) and then diluted to 1×10^5 CFU/ml in broth and aliquoted onto plates. An appropriate volume of peptide stock solution (5 to 20 mg/ml, in water or methanol, depending on solubility) was then added to the first column of the plate to give 500 μg/ml or 512 μg/ml, followed by serial 1:2 dilutions across the plate to give wells containing peptides ranging from 500 to 1.95 μg/ml or 512 to 2 μg/ml. Methanol alone was also added to control for the effects of the solvent. The plates were then incubated at 37° C. under anaerobic conditions for 16 to 20 h without shaking, and the MIC was determined as the concentration of peptide present in the last clear well after visual inspection. Up to 5% (vol/vol) methanol was found not to be antimicrobial (data not shown). MICs were determined in triplicate for all bacteria.

S. mitis ATCC 903 = assay type: cell-based, Streptococcus mitis
Description: as §1, §2

S. sanguinis NY101 = assay type: cell-based, Streptococcus sanguinis
Description: as §1, §2

L. casei ATCC 4646 = assay type: cell-based, Lactobacillus casei
Description: as §1, §2

V. atypica PK1910 = assay type: cell-based, Veillonella atypica
Description: as §1, §2

| Substance | MIC (fusion library peptides) [1] [µg/mL] | TC, time required to kill 3 log10 of recoverable CFU/ml (S. mutans UA159) [min] | MIC pH 4.9 (S. mutans) [μM] | MIC pH 7.4 (S. mutans) [μM] | also measured |
| --- | --- | --- | --- | --- | --- |
| RRRWWWFPSGSPRRRWWWF-NH2 [FRW-4, RRRWWWF-PSGSP-RRRWWWF*] | 32 | 420 | – | – | – |
| FHYFWHWFHRF [AA-6, FHYFWHWFHRF] | – | – | >50 | 125 | – |
| RRRWWWFASASARRRWWWF-NH2 [FRW-3, RRRWWWF-ASASA-RRRWWWF*] | 32 | 480 | – | – | – |
| HHFFHHFHHFFHHF-NH2 [AA-1, HHFFHHFHHFFHHF*] | – | – | 12.5 | >125 | – |
| LYHFLHWFQRF [AA-7, LYHFLHWFQRF] | – | – | >50 | 125 | – |
| RWRRLLKKLHHLLHGGGIKQLLHFFQRF-NH2 [FBα-21, RWRRLLKKLHHLLH-GGG-IKQLLHFFQRF*] | 16 | – | – | – | fewer CFU/ml recovered from fusion peptide-treated cultures than from parental peptide-treated samples (S. mutans UA159; after 30 min): more than 2 log10 |
| RRRWWWFGGGRRRWWWF-NH2 [FRW-5, RRRWWWF-GGG-RRRWWWF*] | 16 | 270 | – | – | – |
| RRRWWWF-NH2 [Peptide 2C-3, RRRWWWF*] | – | 220 | – | – | MIC [1]: 4 to 8 µg/mL; MIC S. gordonii Challis DL1 (S. gordonii Challis DL1): 32 µg/mL; MIC S. mitis ATCC 903 (S. mitis ATCC 903): 32 µg/mL; MIC S. sanguinis NY101 (S. sanguinis NY101): 16 µg/mL; MIC L. casei ATCC 4646 (L. casei ATCC 4646): 16 µg/mL; MIC V. atypica PK1910 (V. atypica PK1910): 64 µg/mL |
| FHFFHHFFHFFHHFKLLK [AA-5, FHFFHHFFHFFHHFKLLK] | – | – | 28.125 | >125 | – |
| RWRWRWFRWRWRWF-NH2 [FRW-8, RWRWRWFRWRWRWF*] | 16 | 50 | – | – | – |
| RWRWRWFGGGRWRWRWF-NH2 [FRW-11, RWRWRWF-GGG-RWRWRWF*] | 16 | 90 | – | – | – |
| RWRWRWFASASARWRWRWF-NH2 [FRW-9, RWRWRWF-ASASA-RWRWRWF*] | 16 | 45 | – | – | – |
| KLLKGATFHFFHHFFHFFHHF [AA-3] | – | – | 6.25 | >125 | – |
| RWRWRWF-NH2 [Peptide 2C-4, RWRWRWF*] | – | – | – | – | MIC [1]: 4 to 8 µg/mL; MIC S. gordonii Challis DL1 (S. gordonii Challis DL1): 32 µg/mL; MIC S. mitis ATCC 903 (S. mitis ATCC 903): 32 µg/mL; MIC S. sanguinis NY101 (S. sanguinis NY101): 32 µg/mL; MIC L. casei ATCC 4646 (L. casei ATCC 4646): 32 µg/mL; MIC V. atypica PK1910 (V. atypica PK1910): 64 µg/mL |
| LKRFLKWFKRF-NH2 [Peptide B-34, LKRFLKWFKRF*] | – | – | – | – | MIC [1]: 8 to 24 µg/mL; MIC S. gordonii Challis DL1 (S. gordonii Challis DL1): 32 µg/mL; MIC S. mitis ATCC 903 (S. mitis ATCC 903): 64 µg/mL; MIC S. sanguinis NY101 (S. sanguinis NY101): 16 µg/mL; MIC L. casei ATCC 4646 (L. casei ATCC 4646): 16 µg/mL; MIC V. atypica PK1910 (V. atypica PK1910): 32 µg/mL |
| RWRWRWFPSGSPRWRWRWF-NH2 [FRW-10, RWRWRWF-PSGSP-RWRWRWF*] | 32 | 270 | – | – | – |
